Source: patent US20260027116A1, “Methods of Treating Chronic Graft-Versus-Host Disease Following Allogeneic Hematopoietic Stem Cell Transplantation” (Kadmon Corporation, LLC, priority 2022, published 2026)

Key:
P-gp = P-gp (Homo sapiens, UniProt P08183); assay: transporter inhibition in vitro; format: in vitro ADME; conditions: at clinically relevant concentrations
UGT1A1 = target: T1, UGT1A1 (Homo sapiens, UniProt P22309); assay: enzyme inhibition in vitro; format: in vitro ADME
T1 sequence (P22309 26-533): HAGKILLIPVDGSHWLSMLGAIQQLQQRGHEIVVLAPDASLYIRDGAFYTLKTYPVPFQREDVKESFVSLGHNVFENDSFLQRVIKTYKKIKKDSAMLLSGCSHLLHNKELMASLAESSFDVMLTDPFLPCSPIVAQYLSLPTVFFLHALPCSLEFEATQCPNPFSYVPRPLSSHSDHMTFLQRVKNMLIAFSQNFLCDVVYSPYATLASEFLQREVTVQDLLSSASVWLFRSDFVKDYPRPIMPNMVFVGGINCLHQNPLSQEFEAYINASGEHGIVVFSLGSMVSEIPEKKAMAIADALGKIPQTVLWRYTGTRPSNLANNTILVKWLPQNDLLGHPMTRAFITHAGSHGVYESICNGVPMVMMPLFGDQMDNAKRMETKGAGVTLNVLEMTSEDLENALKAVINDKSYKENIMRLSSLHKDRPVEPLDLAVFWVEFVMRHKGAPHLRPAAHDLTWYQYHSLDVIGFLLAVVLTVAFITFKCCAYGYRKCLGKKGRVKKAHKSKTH

cGVHD symptom burden = assay: Example 1: Lee Symptom Scale (LSS) score; format: in vivo, human
Description: Lee Symptom Scale (LSS) summary score measures the effect on patients' functioning and well-being. The Lee Symptom Scale is a 30-item scale developed to measure the symptoms of cGVHD and is described in Lec S J, Cook E F, Soiffer R, Antin J H. Development and validation of a scale to measure symptoms of chronic graft-versushost disease. Biol Blood Marrow Transplant 2002; 8:444-452.
All responses were assessed by the investigators.
Change From Baseline in Overall Score on Lee cGvHD Symptom Scale at Specified Time Points. Lee cGVHD symptom scale, a patient-reported symptom scale used to measure symptom burden and has 7 subscales (Skin, Eyes and Mouth, Breathing, Eating and Digestion, Muscles and Joints, Energy, and Mental and Emotional) with ratings as follows: 0—Not at all, 1—Slightly, 2—Moderately, 3—Quite a bit, 4—Extremely, with lower values representing better outcome. Score for each subscale was normalized to a score ranged from 0 to 100, where higher score=worse symptoms. An overall score was calculated as average of these 7 subscales. EOT visit was performed within 3 days after the participant's last dose of study drug. Baseline value was defined as valid and last non-missing value obtained within 28 days prior to participant receiving first study medication. […] Analysis was performed on mITT population. Here, ‘number analyzed’=participants with available data for each specified category. Here, ‘0’ in the number analyzed field signifies that none of the participants were available for the analysis at the specified time points.

Chain of P-gp (P08183 whole entry): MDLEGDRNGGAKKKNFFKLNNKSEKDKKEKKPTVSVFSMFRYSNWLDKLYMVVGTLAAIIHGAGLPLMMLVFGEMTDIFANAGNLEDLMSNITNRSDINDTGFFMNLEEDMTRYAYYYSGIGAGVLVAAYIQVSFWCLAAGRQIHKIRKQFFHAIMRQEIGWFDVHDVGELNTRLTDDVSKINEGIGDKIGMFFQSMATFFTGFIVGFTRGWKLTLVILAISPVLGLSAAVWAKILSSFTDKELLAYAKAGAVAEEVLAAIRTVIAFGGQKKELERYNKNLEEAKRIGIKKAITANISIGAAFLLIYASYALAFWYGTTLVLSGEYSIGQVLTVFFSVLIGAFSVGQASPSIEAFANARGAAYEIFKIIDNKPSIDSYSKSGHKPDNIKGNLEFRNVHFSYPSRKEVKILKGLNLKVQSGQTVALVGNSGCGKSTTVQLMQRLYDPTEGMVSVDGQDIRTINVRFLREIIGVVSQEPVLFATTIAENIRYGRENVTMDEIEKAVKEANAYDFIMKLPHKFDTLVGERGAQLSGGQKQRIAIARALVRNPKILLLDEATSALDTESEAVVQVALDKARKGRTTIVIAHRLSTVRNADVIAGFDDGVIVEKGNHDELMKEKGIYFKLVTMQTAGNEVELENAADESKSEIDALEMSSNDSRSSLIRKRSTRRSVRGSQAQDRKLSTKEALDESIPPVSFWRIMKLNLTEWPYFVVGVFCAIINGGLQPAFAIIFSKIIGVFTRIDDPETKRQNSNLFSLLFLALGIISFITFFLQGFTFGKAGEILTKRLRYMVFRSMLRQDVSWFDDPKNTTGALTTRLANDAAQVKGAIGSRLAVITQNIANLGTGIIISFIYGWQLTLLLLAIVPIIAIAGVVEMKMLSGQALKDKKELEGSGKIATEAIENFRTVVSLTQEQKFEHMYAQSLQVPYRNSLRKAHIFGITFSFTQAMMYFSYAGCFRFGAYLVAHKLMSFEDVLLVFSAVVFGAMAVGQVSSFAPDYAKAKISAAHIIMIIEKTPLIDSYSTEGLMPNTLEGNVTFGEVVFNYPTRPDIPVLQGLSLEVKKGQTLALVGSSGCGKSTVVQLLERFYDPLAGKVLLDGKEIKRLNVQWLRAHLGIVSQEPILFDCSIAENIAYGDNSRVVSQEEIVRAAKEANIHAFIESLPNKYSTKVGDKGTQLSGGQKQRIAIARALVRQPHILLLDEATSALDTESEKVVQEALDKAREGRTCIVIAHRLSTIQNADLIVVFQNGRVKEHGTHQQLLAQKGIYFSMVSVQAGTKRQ

CC(C)NC(=O)COc1cccc(-c2nc(Nc3ccc4[nH]ncc4c3)c3ccccc3n2)c1 [Belumosudil, 2-{3-[4-(1H-indazol-5-ylamino)-2-quinazolinyl]phenoxy}-N-(propan-2-yl) acetamide]
inhibition of P-gp (P-gp): inhibits
inhibition of UGT1A1 (UGT1A1): inhibitor
LSS improvement, nonresponder, n/N (cGVHD symptom burden; Cohort 1 200 mg QD): 1/6
LSS improvement, responder, n/N (cGVHD symptom burden; Cohort 1 200 mg QD): 8/11
Change From Baseline in Overall Score on Lee cGvHD Symptom Scale, Mean (Standard Deviation) (cGVHD symptom burden; Cohort 1: 200 mg QD, Cycle 3, Day 1): −3.0 (8.5) score on a scale
Change From Baseline in Overall Score on Lee cGvHD Symptom Scale, Mean (Standard Deviation) (cGVHD symptom burden; Cohort 1: 200 mg QD, Cycle 5, Day 1): −3.7 (11.0) score on a scale
Change From Baseline in Overall Score on Lee cGvHD Symptom Scale, Mean (Standard Deviation) (cGVHD symptom burden; Cohort 1: 200 mg QD, Cycle 7, Day 1): −4.9 (8.4) score on a scale
Change From Baseline in Overall Score on Lee cGvHD Symptom Scale, Mean (Standard Deviation) (cGVHD symptom burden; Cohort 1: 200 mg QD, Cycle 9, Day 1): −3.7 (10.7) score on a scale
Change From Baseline in Overall Score on Lee cGvHD Symptom Scale, Mean (Standard Deviation) (cGVHD symptom burden; Cohort 1: 200 mg QD, Cycle 11, Day 1): −3.4 (11.5) score on a scale
Change From Baseline in Overall Score on Lee cGvHD Symptom Scale, Mean (Standard Deviation) (cGVHD symptom burden; Cohort 1: 200 mg QD, Cycle 12, Day 1): −3.9 (8.1) score on a scale
Change From Baseline in Overall Score on Lee cGvHD Symptom Scale, Mean (Standard Deviation) (cGVHD symptom burden; Cohort 1: 200 mg QD, Cycle 13, Day 1): −5.8 (14.7) score on a scale
Change From Baseline in Overall Score on Lee cGvHD Symptom Scale, Mean (Standard Deviation) (cGVHD symptom burden; Cohort 1: 200 mg QD, Cycle 14, Day 1): −1.6 (17.1) score on a scale
Change From Baseline in Overall Score on Lee cGvHD Symptom Scale, Mean (Standard Deviation) (cGVHD symptom burden; Cohort 1: 200 mg QD, Cycle 15, Day 1): −4.8 (15.8) score on a scale
Change From Baseline in Overall Score on Lee cGvHD Symptom Scale, Mean (Standard Deviation) (cGVHD symptom burden; Cohort 1: 200 mg QD, Cycle 16, Day 1): −4.6 (16.1) score on a scale
Change From Baseline in Overall Score on Lee cGvHD Symptom Scale, Mean (Standard Deviation) (cGVHD symptom burden; Cohort 1: 200 mg QD, Cycle 27, Day 1): −3.5 (25.3) score on a scale
Change From Baseline in Overall Score on Lee cGvHD Symptom Scale, Mean (Standard Deviation) (cGVHD symptom burden; Cohort 1: 200 mg QD, Cycle 28, Day 1): 4.4 (13.4) score on a scale
Change From Baseline in Overall Score on Lee cGvHD Symptom Scale, Mean (Standard Deviation) (cGVHD symptom burden; Cohort 1: 200 mg QD, Cycle 29, Day 1): −2.8 (23.7) score on a scale
Change From Baseline in Overall Score on Lee cGvHD Symptom Scale, Mean (Standard Deviation) (cGVHD symptom burden; Cohort 1: 200 mg QD, Cycle 30, Day 1): 9.0 (7.5) score on a scale
Change From Baseline in Overall Score on Lee cGvHD Symptom Scale, Mean (Standard Deviation) (cGVHD symptom burden; Cohort 1: 200 mg QD, Cycle 31, Day 1): −4.8 (27.9) score on a scale
Change From Baseline in Overall Score on Lee cGvHD Symptom Scale, Mean (Standard Deviation) (cGVHD symptom burden; Cohort 1: 200 mg QD, Cycle 32, Day 1): 10.3 (6.9) score on a scale
Change From Baseline in Overall Score on Lee cGvHD Symptom Scale, Mean (Standard Deviation) (cGVHD symptom burden; Cohort 1: 200 mg QD, Cycle 33, Day 1): 0.5 (20.7) score on a scale
Change From Baseline in Overall Score on Lee cGvHD Symptom Scale, Mean (Standard Deviation) (cGVHD symptom burden; Cohort 1: 200 mg QD, Cycle 34, Day 1): 13.5 (3.6) score on a scale
Change From Baseline in Overall Score on Lee cGvHD Symptom Scale, Mean (Standard Deviation) (cGVHD symptom burden; Cohort 1: 200 mg QD, Cycle 35, Day 1): −2.5 (23.3) score on a scale
Change From Baseline in Overall Score on Lee cGvHD Symptom Scale, Mean (Standard Deviation) (cGVHD symptom burden; Cohort 1: 200 mg QD, Cycle 36, Day 1): 7.5 (6.4) score on a scale
Change From Baseline in Overall Score on Lee cGvHD Symptom Scale, Mean (Standard Deviation) (cGVHD symptom burden; Cohort 1: 200 mg QD, Cycle 37, Day 1): −5.3 (29.0) score on a scale
Change From Baseline in Overall Score on Lee cGvHD Symptom Scale, Mean (Standard Deviation) (cGVHD symptom burden; Cohort 1: 200 mg QD, Cycle 38, Day 1): 9.1 (5.2) score on a scale
Change From Baseline in Overall Score on Lee cGvHD Symptom Scale, Mean (Standard Deviation) (cGVHD symptom burden; Cohort 1: 200 mg QD, Cycle 39, Day 1): −6.2 (25.9) score on a scale
Change From Baseline in Overall Score on Lee cGvHD Symptom Scale, Mean (Standard Deviation) (cGVHD symptom burden; Cohort 1: 200 mg QD, Cycle 40, Day 1): 2.7 (—) score on a scale
Change From Baseline in Overall Score on Lee cGvHD Symptom Scale, Mean (Standard Deviation) (cGVHD symptom burden; Cohort 1: 200 mg QD, Cycle 41, Day 1): −25.7 (—) score on a scale
Change From Baseline in Overall Score on Lee cGvHD Symptom Scale, Mean (Standard Deviation) (cGVHD symptom burden; Cohort 1: 200 mg QD, Cycle 42, Day 1): 4.6 (—) score on a scale
Change From Baseline in Overall Score on Lee cGvHD Symptom Scale, Mean (Standard Deviation) (cGVHD symptom burden; Cohort 1: 200 mg QD, Cycle 43, Day 1): −20.4 (—) score on a scale
Change From Baseline in Overall Score on Lee cGvHD Symptom Scale, Mean (Standard Deviation) (cGVHD symptom burden; Cohort 1: 200 mg QD, Cycle 44, Day 1): 4.3 (—) score on a scale
Change From Baseline in Overall Score on Lee cGvHD Symptom Scale, Mean (Standard Deviation) (cGVHD symptom burden; Cohort 1: 200 mg QD, Cycle 46, Day 1): 4.6 (—) score on a scale
Change From Baseline in Overall Score on Lee cGvHD Symptom Scale, Mean (Standard Deviation) (cGVHD symptom burden; Cohort 1: 200 mg QD, Cycle 47, Day 1): −6.8 (—) score on a scale
Change From Baseline in Overall Score on Lee cGvHD Symptom Scale, Mean (Standard Deviation) (cGVHD symptom burden; Cohort 1: 200 mg QD, Cycle 48, Day 1): 2.4 (—) score on a scale
Change From Baseline in Overall Score on Lee cGvHD Symptom Scale, Mean (Standard Deviation) (cGVHD symptom burden; Cohort 1: 200 mg QD, Cycle 50, Day 1): 4.5 (—) score on a scale
Change From Baseline in Overall Score on Lee cGvHD Symptom Scale, Mean (Standard Deviation) (cGVHD symptom burden; Cohort 1: 200 mg QD, Cycle 51, Day 1): −12.0 (—) score on a scale
Change From Baseline in Overall Score on Lee cGvHD Symptom Scale, Mean (Standard Deviation) (cGVHD symptom burden; Cohort 1: 200 mg QD, Cycle 52, Day 1): 6.0 (—) score on a scale
Change From Baseline in Overall Score on Lee cGvHD Symptom Scale, Mean (Standard Deviation) (cGVHD symptom burden; Cohort 1: 200 mg QD, Cycle 53, Day 1): −19.2 (—) score on a scale
Change From Baseline in Overall Score on Lee cGvHD Symptom Scale, Mean (Standard Deviation) (cGVHD symptom burden; Cohort 1: 200 mg QD, Cycle 54, Day 1): 4.9 (—) score on a scale
Change From Baseline in Overall Score on Lee cGvHD Symptom Scale, Mean (Standard Deviation) (cGVHD symptom burden; Cohort 1: 200 mg QD, Cycle 55, Day 1): −16.8 (—) score on a scale
Change From Baseline in Overall Score on Lee cGvHD Symptom Scale, Mean (Standard Deviation) (cGVHD symptom burden; Cohort 1: 200 mg QD, Cycle 56, Day 1): 1.8 (—) score on a scale
Change From Baseline in Overall Score on Lee cGvHD Symptom Scale, Mean (Standard Deviation) (cGVHD symptom burden; Cohort 1: 200 mg QD, Cycle 57, Day 1): −17.6 (—) score on a scale
Change From Baseline in Overall Score on Lee cGvHD Symptom Scale, Mean (Standard Deviation) (cGVHD symptom burden; Cohort 1: 200 mg QD, Cycle 58, Day 1): 5.4 (—) score on a scale
Change From Baseline in Overall Score on Lee cGvHD Symptom Scale, Mean (Standard Deviation) (cGVHD symptom burden; Cohort 1: 200 mg QD, Cycle 59, Day 1): −12.7 (—) score on a scale
Change From Baseline in Overall Score on Lee cGvHD Symptom Scale, Mean (Standard Deviation) (cGVHD symptom burden; Cohort 1: 200 mg QD, Cycle 60, Day 1): 4.2 (—) score on a scale
Change From Baseline in Overall Score on Lee cGvHD Symptom Scale, Mean (Standard Deviation) (cGVHD symptom burden; Cohort 1: 200 mg QD, Cycle 61, Day 1): −19.3 (—) score on a scale
Change From Baseline in Overall Score on Lee cGvHD Symptom Scale, Mean (Standard Deviation) (cGVHD symptom burden; Cohort 1: 200 mg QD, Cycle 62, Day 1): 4.4 (—) score on a scale
Change From Baseline in Overall Score on Lee cGvHD Symptom Scale, Mean (Standard Deviation) (cGVHD symptom burden; Cohort 1: 200 mg QD, Cycle 63, Day 1): −18.0 (—) score on a scale
Change From Baseline in Overall Score on Lee cGvHD Symptom Scale, Mean (Standard Deviation) (cGVHD symptom burden; Cohort 1: 200 mg QD, Cycle 67, Day 1): −21.9 (—) score on a scale
Change From Baseline in Overall Score on Lee cGvHD Symptom Scale, Mean (Standard Deviation) (cGVHD symptom burden; Cohort 1: 200 mg QD, EOT): −4.3 (11.7) score on a scale
LSS improvement, nonresponder, n/N (cGVHD symptom burden; Cohort 2 200 mg BID): 4/5
LSS improvement, responder, n/N (cGVHD symptom burden; Cohort 2 200 mg BID): 3/11
Change From Baseline in Overall Score on Lee cGvHD Symptom Scale, Mean (Standard Deviation) (cGVHD symptom burden; Cohort 2: 200 mg BID, Cycle 3, Day 1): 0.5 (7.3) score on a scale
Change From Baseline in Overall Score on Lee cGvHD Symptom Scale, Mean (Standard Deviation) (cGVHD symptom burden; Cohort 2: 200 mg BID, Cycle 5, Day 1): −3.7 (7.0) score on a scale
Change From Baseline in Overall Score on Lee cGvHD Symptom Scale, Mean (Standard Deviation) (cGVHD symptom burden; Cohort 2: 200 mg BID, Cycle 7, Day 1): −2.2 (8.8) score on a scale
